In patent publication US8455663B2, “Halosubstituted aryloxyalkylimidazolines for use as pesticides” (Syngenta Crop Protection LLC, priority 2007, dated 2013):
Read-outs that look alike come from different tables or passages of the source.

How the values were obtained:
Assay type in all cases: in vivo
[1] = test system: T. Urticae; test: Tetranychus urticae bean leaf disc test, comparison with prior art compounds A and B; conditions: 12.5 ppm spray on bean leaf discs; mixed ages; 8 days; egg, larval and adult mortality
Text: 4.4.2 In a further test, the efficacy of one of the compounds giving 100% control in Example 4.4.1 above was compared to the efficacy of imidazoline compounds from the prior art (compounds A and B).
Bean leaf discs on agar in 24-well microtiter plates were sprayed with test solutions at an application rate of 12.5 ppm. After drying, the leaf discs are infested with mite populations of mixed ages. 8 days later, discs are checked for egg mortality, larval mortality, and adult mortality.

[2] = test system: Heliothis virescens; test: Heliothis virescens (tobacco budworm) egg/larvae test on artificial diet; conditions: for pest or weed control at 200 ppm: Heliothis virescens, 96 h, read-out: control of Heliothis virescens
Procedure: 4.1 Heliothis Virescens (Tobacco Budworm):
Eggs (0-24 h old) were placed in 24-well microtiter plate on artificial diet and treated with test solutions at an application rate of 200 ppm by pipetting. After an incubation period of 4 days, samples were checked for egg mortality, larval mortality, and growth regulation.

[3] = test system: Myzus persicae; test: Myzus persicae (green peach aphid) sunflower leaf disc spray test; conditions: for pest or weed control at 200 ppm: Myzus persicae, foliar, 144 h, read-out: control of Myzus persicae
Procedure: 4.2 Myzus Persicae (Green Peach Aphid):
Sunflower leaf discs were placed on agar in a 24-well microtiter plate and sprayed with test solutions at an application rate of 200 ppm. After drying, the leaf discs were infested with an aphid population of mixed ages. After an incubation period of 6 DAT, samples were checked for mortality.

[4] = test system: Myzus persicae; test: Myzus persicae (green peach aphid) pea seedling root uptake test; conditions: for pest or weed control at 24 ppm: Myzus persicae, 144 h, read-out: control of Myzus persicae
Text: 4.3 Myzus Persicae (Green Peach Aphid):
Roots of pea seedlings, infested with an aphid population of mixed ages, were placed directly in the test solutions of 24 ppm. 6 days after introduction, samples were checked for mortality.

[5] = test system: Tetranychus urticae; test: Tetranychus urticae (two-spotted spider mite) bean leaf disc spray test; conditions: for pest or weed control at 200 ppm: Tetranychus urticae, foliar, 192 h, read-out: control of Tetranychus urticae
Text: 4.4 Tetranychus Urticae (Two-Spotted Spider Mite):
4.4.1 Bean leaf discs on agar in 24-well microtiter plates were sprayed with test solutions at an application rate of 200 ppm. After drying, the leaf discs are infested with mite populations of mixed ages. 8 days later, discs are checked for egg mortality, larval mortality, and adult mortality.

[6] = 200 ppm by pipetting on eggs (0-24 h old) on artificial diet, 4 days, egg mortality, larval mortality, growth regulation
[7] = 200 ppm spray on sunflower leaf discs, mixed ages, 6 DAT, mortality
[8] = 24 ppm test solution, roots of infested pea seedlings, 6 days, mortality
[9] = 200 ppm spray on bean leaf discs, mixed ages, 8 days, egg, larval and adult mortality

CCC(Oc1cccc(Cl)c1Cl)C1=NCCN1 (stereo not drawn) [A]
Control % [1]: 0%

CCC(Oc1cccc(C)c1Cl)C1=NCCN1 (stereo not drawn) [B]
Control % [1]: 50%

CCC(Oc1cccc(C(F)(F)F)c1Cl)C1=NCCN1 (stereo not drawn) [Compound 1.001, 2-[1-(2-Chloro-3-trifluormethyl-phenoxy)-propyl]-4,5-dihydro-1H-imidazole]
pest or weed control at 200 ppm [2, 6]: 50%
pest or weed control at 200 ppm [3, 7]: 100%
pest or weed control at 24 ppm [4, 8]: 100%
pest or weed control at 200 ppm [5, 9]: 100%
Control % [1]: 80%

CCC(Oc1cccc(C(F)F)c1Cl)C1=NCCN1 (stereo not drawn) [Compound 1.002, 2-[1-(2-Chloro-3-difluoromethyl-phenoxy)-propyl]-4,5-dihydro-1H-imidazole]
pest or weed control at 200 ppm [2]: 0%
pest or weed control at 200 ppm [3]: 100%
pest or weed control at 24 ppm [4]: 80%
pest or weed control at 200 ppm [5]: 100%

CCC(Oc1cccc(C(F)F)c1Cl)C1=NCCN1C(=O)OC(C)(C)C (stereo not drawn) [Compound 1.003]
pest or weed control at 200 ppm [2, 6]: 0%
pest or weed control at 200 ppm [3, 7]: 100%
pest or weed control at 24 ppm [4, 8]: 0%
pest or weed control at 200 ppm [5, 9]: 0%

CCC(Oc1cccc(CO)c1Cl)C1=NCCN1 (stereo not drawn) [Compound 1.005]
pest or weed control at 200 ppm [2, 6]: 0%
pest or weed control at 200 ppm [3, 7]: 0%
pest or weed control at 24 ppm [4, 8]: 0%
pest or weed control at 200 ppm [5, 9]: 0%

CCC(Oc1cccc(CF)c1Cl)C1=NCCN1 (stereo not drawn) [Compound 1.006]
pest or weed control at 200 ppm [2, 6]: 100%
pest or weed control at 200 ppm [3, 7]: 100%
pest or weed control at 24 ppm [4, 8]: 80%
pest or weed control at 200 ppm [5, 9]: 100%

CCC(Oc1cccc(CO)c1Cl)C1=NCCN1C(=O)OC(C)(C)C (stereo not drawn) [Compound 1.007]
pest or weed control at 200 ppm [2, 6]: 0%
pest or weed control at 200 ppm [3, 7]: 0%
pest or weed control at 200 ppm [5, 9]: 0%

CCC(Oc1cccc(COC)c1Cl)C1=NCCN1 (stereo not drawn) [Compound 1.008]
control of Heliothis virescens [2, 6]: 80%
control of Myzus persicae [3, 7]: 0%
control of Tetranychus urticae [5, 9]: 0%

C#Cc1cccc(OC(CC)C2=NCCN2)c1Cl (stereo not drawn) [Compound 1.011, 2-[1-(2-Chloro-3-ethynyl-phenoxy)-propyl]-4,5-dihydro-1H-imidazole]
pest or weed control at 200 ppm [2, 6]: 50%
pest or weed control at 200 ppm [3, 7]: 50%
pest or weed control at 200 ppm [5, 9]: 0%

C=Cc1cccc(OC(CC)C2=NCCN2)c1Cl (stereo not drawn) [Compound 1.012]
pest or weed control at 200 ppm [2, 6]: 0%
pest or weed control at 200 ppm [3, 7]: 0%
pest or weed control at 200 ppm [5, 9]: 0%

CC(Oc1cccc(C(F)(F)F)c1Cl)C1=NCCN1 (stereo not drawn) [Compound 1.014]
pest or weed control at 200 ppm [2, 6]: 80%
pest or weed control at 200 ppm [3, 7]: 100%
pest or weed control at 24 ppm [4, 8]: 50%
pest or weed control at 200 ppm [5, 9]: 80%

CCCC(Oc1cccc(C(F)(F)F)c1Cl)C1=NCCN1 (stereo not drawn) [Compound 1.015]
control of Heliothis virescens [2, 6]: 100%
control of Myzus persicae [3, 7]: 100%
control of Myzus persicae [4, 8]: 50%
control of Tetranychus urticae [5, 9]: 100%

CC(C)C(Oc1cccc(C(F)(F)F)c1Cl)C1=NCCN1 (stereo not drawn) [Compound 1.016]
pest or weed control at 200 ppm [2, 6]: 0%
pest or weed control at 200 ppm [3, 7]: 100%
pest or weed control at 24 ppm [4, 8]: 80%
pest or weed control at 200 ppm [5, 9]: 100%

C=Cc1cccc(OC(CC)C2=NCCN2C(=O)OC(C)(C)C)c1Cl (stereo not drawn) [Compound 1.017]
pest or weed control at 200 ppm [2, 6]: 0%
pest or weed control at 200 ppm [3, 7]: 0%
pest or weed control at 200 ppm [5, 9]: 0%

CCC(Oc1cccc(CSC)c1Cl)C1=NCCN1 (stereo not drawn) [Compound 1.019]
control of Heliothis virescens [2, 6]: 0%
control of Myzus persicae [3, 7]: 0%
control of Tetranychus urticae [5, 9]: 0%

CCC(Oc1cccc(C(F)(F)F)c1I)C1=NCCN1.O=C(O)/C=C\C(=O)O (stereo not drawn) [Compound 1.020]
control of Heliothis virescens [2, 6]: 0%
control of Myzus persicae [3, 7]: 100%
control of Myzus persicae [4, 8]: 80%
control of Tetranychus urticae [5, 9]: 100%

CCCC(Oc1cccc(Br)c1Br)C1=NCCN1 (stereo not drawn) [Compound 1.021]
pest or weed control at 200 ppm [2, 6]: 100%
pest or weed control at 200 ppm [3, 7]: 100%
pest or weed control at 24 ppm [4, 8]: 0%
pest or weed control at 200 ppm [5, 9]: 100%

CCCC(Oc1cccc(I)c1Br)C1=NCCN1 (stereo not drawn) [Compound 1.022]
pest or weed control at 200 ppm [2, 6]: 50%
pest or weed control at 200 ppm [3, 7]: 100%
pest or weed control at 200 ppm [5, 9]: 80%

CC(Oc1cccc(C(F)F)c1Cl)C1=NCCN1 (stereo not drawn) [Compound 1.023]
pest or weed control at 200 ppm [2, 6]: 80%
pest or weed control at 200 ppm [3, 7]: 100%
pest or weed control at 24 ppm [4, 8]: 0%
pest or weed control at 200 ppm [5, 9]: 0%

CCC(Oc1cccc(C#N)c1Cl)C1=NCCN1 (stereo not drawn) [Compound 1.024]
pest or weed control at 200 ppm [2, 6]: 0%
pest or weed control at 200 ppm [3, 7]: 80%
pest or weed control at 24 ppm [4, 8]: 50%
pest or weed control at 200 ppm [5, 9]: 100%

CCC(Oc1cccc(C#N)c1Cl)C1=NCCN1C(=O)OC(C)(C)C (stereo not drawn) [Compound 1.025]
pest or weed control at 200 ppm [2, 6]: 0%
pest or weed control at 200 ppm [3, 7]: 0%
pest or weed control at 200 ppm [5, 9]: 50%

CCCCC(Oc1cccc(C(F)(F)F)c1Cl)C1=NCCN1 (stereo not drawn) [Compound 1.027]
pest or weed control at 200 ppm [2, 6]: 50%
pest or weed control at 200 ppm [3, 7]: 80%
pest or weed control at 24 ppm [4, 8]: 0%
pest or weed control at 200 ppm [5, 9]: 100%

CCCC(Oc1cccc(C(F)F)c1Cl)C1=NCCN1 (stereo not drawn) [Compound 1.028]
pest or weed control at 200 ppm [2, 6]: 80%
pest or weed control at 200 ppm [3, 7]: 100%
pest or weed control at 24 ppm [4, 8]: 100%
pest or weed control at 200 ppm [5, 9]: 100%

CCCCC(Oc1cccc(C(F)F)c1Cl)C1=NCCN1 (stereo not drawn) [Compound 1.029]
pest or weed control at 200 ppm [2, 6]: 80%

CC(C)C(Oc1cccc(C(F)F)c1Cl)C1=NCCN1 (stereo not drawn) [Compound 1.030]
pest or weed control at 200 ppm [2, 6]: 0%
pest or weed control at 200 ppm [3, 7]: 100%
pest or weed control at 24 ppm [4, 8]: 80%
pest or weed control at 200 ppm [5, 9]: 100%

CCCC(Oc1cccc(CF)c1Cl)C1=NCCN1 (stereo not drawn) [Compound 1.031]
pest or weed control at 200 ppm [2, 6]: 0%
pest or weed control at 200 ppm [3, 7]: 100%
pest or weed control at 24 ppm [4, 8]: 80%
pest or weed control at 200 ppm [5, 9]: 100%

CCCCC(Oc1cccc(CF)c1Cl)C1=NCCN1 (stereo not drawn) [Compound 1.032]
pest or weed control at 200 ppm [2, 6]: 0%
pest or weed control at 200 ppm [3, 7]: 100%
pest or weed control at 24 ppm [4, 8]: 50%
pest or weed control at 200 ppm [5, 9]: 0%

CCCC(Oc1cccc(I)c1Cl)C1=NCCN1 (stereo not drawn) [Compound 1.033]
pest or weed control at 200 ppm [2, 6]: 80%
pest or weed control at 200 ppm [3, 7]: 100%
pest or weed control at 24 ppm [4, 8]: 0%
pest or weed control at 200 ppm [5, 9]: 80%

CCC(Oc1cccc(CCl)c1Cl)C1=NCCN1C(=O)OC(C)(C)C (stereo not drawn) [Compound 1.034]
control of Heliothis virescens [2, 6]: 100%
control of Myzus persicae [3, 7]: 0%
control of Tetranychus urticae [5, 9]: 0%

CCC(Oc1cccc(C[S+](C)[O-])c1Cl)C1=NCCN1 (stereo not drawn) [Compound 1.035]
control of Heliothis virescens [2, 6]: 0%
control of Myzus persicae [3, 7]: 0%
control of Tetranychus urticae [5, 9]: 0%

CCCC(Oc1cccc(Br)c1Cl)C1=NCCN1 (stereo not drawn) [Compound 1.036]
pest or weed control at 200 ppm [2, 6]: 100%
pest or weed control at 200 ppm [3, 7]: 100%
pest or weed control at 24 ppm [4, 8]: 0%
pest or weed control at 200 ppm [5, 9]: 100%

CC(C)C(Oc1cccc(CF)c1Cl)C1=NCCN1 (stereo not drawn) [Compound 1.037]
pest or weed control at 200 ppm [2, 6]: 80%
pest or weed control at 200 ppm [3, 7]: 100%
pest or weed control at 24 ppm [4, 8]: 50%
pest or weed control at 200 ppm [5, 9]: 100%
